# Measured values published in patent publication US20230357179A1, “RAF KINASE INHIBITORS AND METHODS OF USE THEREOF” (Deciphera Pharmaceuticals, LLC, priority 2021, published 2023).
# Legend:
# H2405 cells = assay: H2405 cell proliferation assay (1), resazurin, 96-well; format: cell-based; conditions: Homo sapiens, NCI-H2405, inhibition of cell proliferation
# Procedure, shortened: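 This is a resazurin viability readout (excitation 540 nm, emission 600 nm) taken 5-6 h after adding 440 μM resazurin solution, giving IC50 values.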
# A-Raf kinase = target: T1, A-Raf kinase (Homo sapiens, UniProt P10398, Y301D/Y302D); assay: Biochemical assay for A-Raf.1 (coupled pyruvate kinase/lactate dehydrogenase); conditions: read-out: ARAF.1 IC50
# T1 construct: purchased Sigma
# T1 sequence (P10398 with tags, fused parts or gaps Y301D/Y302D): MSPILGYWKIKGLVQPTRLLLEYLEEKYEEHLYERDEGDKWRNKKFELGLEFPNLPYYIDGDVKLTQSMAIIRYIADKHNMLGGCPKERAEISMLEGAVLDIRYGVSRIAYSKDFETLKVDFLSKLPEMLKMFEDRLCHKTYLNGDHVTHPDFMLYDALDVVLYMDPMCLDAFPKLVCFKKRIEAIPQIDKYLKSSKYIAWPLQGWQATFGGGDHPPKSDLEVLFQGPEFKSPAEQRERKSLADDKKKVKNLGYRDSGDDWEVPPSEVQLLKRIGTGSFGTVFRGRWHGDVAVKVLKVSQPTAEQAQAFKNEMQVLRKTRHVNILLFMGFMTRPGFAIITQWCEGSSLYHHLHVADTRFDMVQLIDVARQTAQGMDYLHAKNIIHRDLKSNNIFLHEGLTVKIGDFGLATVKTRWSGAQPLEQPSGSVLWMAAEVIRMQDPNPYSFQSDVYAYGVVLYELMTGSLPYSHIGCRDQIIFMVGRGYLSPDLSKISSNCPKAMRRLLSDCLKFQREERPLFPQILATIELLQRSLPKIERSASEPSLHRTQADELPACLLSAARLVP
# Procedure, shortened: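 IC50 values came from four-parameter sigmoidal fits of percent inhibition, using rates over the 4 to 5 h window of continuous A340 readings (6 h, 30° C). The coupled PK/LDH system tracked NADH oxidation during 5.55 nM A-Raf activity on 30.1 nM MEK at 1 mM ATP, buffer pH 7.5.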
# C-Raf kinase = target: T2, C-Raf kinase (Homo sapiens, UniProt P04049, Y340D/Y341D); assay: Biochemical assay for C-Raf.1 (coupled pyruvate kinase/lactate dehydrogenase); conditions: read-out: CRAF.1 IC50
# T2 construct: Y340D,; GST (N); purchased Sigma
# T2 sequence (P04049 307-648 Y340D/Y341D): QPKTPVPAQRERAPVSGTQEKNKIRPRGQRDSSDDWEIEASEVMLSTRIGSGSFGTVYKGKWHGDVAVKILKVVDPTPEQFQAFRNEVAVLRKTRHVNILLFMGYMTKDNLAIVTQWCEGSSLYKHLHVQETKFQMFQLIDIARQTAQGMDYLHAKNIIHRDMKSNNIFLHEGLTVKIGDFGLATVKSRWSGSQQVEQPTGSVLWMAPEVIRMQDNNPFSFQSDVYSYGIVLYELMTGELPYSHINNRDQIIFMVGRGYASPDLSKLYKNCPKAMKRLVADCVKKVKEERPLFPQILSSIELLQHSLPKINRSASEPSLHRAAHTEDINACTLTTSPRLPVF
# Procedure, shortened: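 NADH depletion at 340 nm monitored continuously for 6 h at 30° C, with rates taken over 4–5 h. The coupled pyruvate kinase/lactate dehydrogenase reaction used 1 mM ATP, 30.1 nM MEK substrate and 0.43 nM kinase at pH 7.5. IC50 was fitted sigmoidally from percent inhibition of serially diluted compound.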
# B-Raf (V600E) kinase = target: T3, B-Raf (V600E) kinase (Homo sapiens, UniProt P15056, V600E); assay: Biochemical assay for B-Raf (V600E).1 (coupled pyruvate kinase/lactate dehydrogenase); conditions: read-out: BRAF V600E.1 IC50
# T3 construct: B-Raf (V600E) residues 416-766 with a; GST (N); purchased SignalChem
# T3 sequence (P15056 416-766 V600E): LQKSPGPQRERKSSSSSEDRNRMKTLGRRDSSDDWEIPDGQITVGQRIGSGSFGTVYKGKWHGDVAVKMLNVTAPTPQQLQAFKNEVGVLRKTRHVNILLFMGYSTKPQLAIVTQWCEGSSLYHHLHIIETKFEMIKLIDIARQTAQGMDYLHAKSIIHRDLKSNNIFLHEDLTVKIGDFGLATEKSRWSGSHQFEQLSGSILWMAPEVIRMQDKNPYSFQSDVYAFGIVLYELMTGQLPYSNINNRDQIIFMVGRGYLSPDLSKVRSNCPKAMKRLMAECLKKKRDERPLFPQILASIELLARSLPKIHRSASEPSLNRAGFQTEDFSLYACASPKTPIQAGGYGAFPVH
# Procedure, shortened: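 IC50 came from four-parameter sigmoidal fits of percent inhibition, using reaction rates over 3-4 h. Continuous A340 reading (6 h, 30 °C) of a pyruvate kinase/lactate dehydrogenase-coupled reaction: B-Raf V600E 0.03 nM, MEK 30.1 nM, ATP 1 mM, Tris pH 7.5, 1% DMSO.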
Compound,IC50 (H2405 cells) [nM],IC50 (A-Raf kinase) [nM],IC50 (C-Raf kinase) [nM],IC50 (B-Raf (V600E) kinase) [nM]
COC(=O)Nc1cc(-c2cncc(-c3cc(NC(=O)N4CC[C@H](C(F)(F)F)C4)ccc3C)c2)ccn1 [Example 211],100 to 500,> 1000,≤ 100,≤ 100
COC(=O)Nc1cc(-c2cc(-c3cc(NC(=O)NCCC4(C)CC4)c(F)cc3F)cc(OCCO)n2)ccn1 [Example 188],500 to 1000,> 1000,≤ 100,≤ 100
Cc1ccc(NC(=O)N2CC[C@H](C(F)(F)F)C2)cc1-c1cccc(-c2cc(NC(=O)C3CC3)ncn2)c1 [Example 200],100 to 500,> 1000,≤ 100,≤ 100
Cc1ccc(NC(=O)N2CC[C@H](C(F)(F)F)C2)cc1-c1cncc(-c2ccnc(NC(=O)C3CC3)c2)c1 [Example 197],100 to 500,500 to 1000,≤ 100,≤ 100
CNC(=O)c1cc(-c2cc(-c3cc(NC(=O)Nc4ccnc(C(C)(C)C#N)c4)ccc3C)ccn2)ccn1 [Example 69],1000 to 10000,> 1000,≤ 100,≤ 100
COC(C)(C)CCNC(=O)Nc1cc(-c2cnnc(-c3ccnc(NC(=O)C4CC4)c3)c2)c(C)cc1F [Example 173],100 to 500,> 1000,≤ 100,≤ 100
CNC(=O)c1cc(-c2cc(-c3cc(NC(=O)NC4CCCCC4)c(F)cc3C)cc(OCCO)n2)ccn1 [Example 205],–,> 1000,≤ 100,≤ 100
CC(=O)Nc1cc(-c2cc(-c3cc(NC(=O)NC4CCC(F)(F)CC4)c(F)cc3C)cc(OCCO)n2)ccn1 [Example 63],–,500 to 1000,≤ 100,≤ 100
COC(C)(C)CCNC(=O)Nc1cc(-c2nccc(-c3ccnc(NC(=O)C4CC4)c3)n2)c(C)cc1F [Example 83],100 to 500,500 to 1000,≤ 100,≤ 100
CNC(=O)c1cc(-c2cncc(-c3cc(NC(=O)N4CC[C@H](C(F)(F)F)C4)c(F)cc3C)c2)ccn1 [Example 214],100 to 500,> 1000,100 to 500,100 to 500
COC[C@H]1CCN(C(=O)Nc2cnc(C)c(-c3ccnc(-c4ccnc(NC(=O)OC)c4)c3)c2)C1 [Example 176],1000 to 10000,> 1000,100 to 500,≤ 100
CNC(=O)c1cc(-c2cnnc(-c3cc(NC(=O)N4CC[C@@H](OC(F)(F)F)C4)ccc3C)c2)ccn1 [Example 182],1000 to 10000,> 1000,100 to 500,≤ 100
Cc1cc(F)c(NC(=O)NC2CC(C)(C)C2)cc1-c1cc(OCCO)nc(-c2ccnc(NC(=O)C3CC3)c2)c1 [Example 80],≤ 100,> 1000,≤ 100,≤ 100
CC(=O)Nc1cc(-c2cc(-c3cc(NC(=O)NCCC(C)(C)C#N)c(F)cc3C)cc(C3CC3)n2)ccn1 [Example 59],–,100 to 500,≤ 100,≤ 100
CC(=O)Nc1cc(-c2cc(-c3cc(NC(=O)NCCC4(C)CC4)c(F)cc3C)cc(C3CC3)n2)ccn1 [Example 51],–,> 1000,≤ 100,≤ 100
Cc1ccc(NC(=O)Nc2cn(C)nc2C(F)(F)F)cc1-c1cc(OCCO)nc(N2CCOCC2)c1 [Example 42],1000 to 10000,> 1000,> 1000,≤ 100
Cc1ccc(NC(=O)N2CCC(CC(F)(F)F)C2)cc1-c1cncc(-c2cc(NC(=O)C3CC3)ncn2)c1 (centres unmarked) [Example 194],100 to 500,> 1000,≤ 100,≤ 100
COC(C)(C)CCNC(=O)Nc1ccc(C)c(-c2cc(-c3ccnc(NC(C)=O)c3)n(C)c(=O)c2)c1 [Example 60],–,> 1000,100 to 500,≤ 100
Cc1cc(F)c(NC(=O)NCCC(C)(C)C#N)cc1-c1cc(N2CCOCC2)nc(N2CCOCC2)c1 [Example 22],1000 to 10000,> 1000,≤ 100,≤ 100
COC(=O)Nc1cc(-c2cc(-c3cc(NC(=O)NCCC4(C)CC4)ccc3F)cc(OCCO)n2)ccn1 [Example 187],1000 to 10000,> 1000,≤ 100,100 to 500
COC1(CCNC(=O)Nc2cnc(C)c(-c3cccc(-c4cc(NC(=O)C5CC5)ncn4)c3)c2)CC1 [Example 84],1000 to 10000,> 1000,≤ 100,≤ 100
Cc1ccc(NC(=O)N2CCC(C(F)(F)F)C2)cc1-c1cccc(-c2cc(NC(=O)C3CC3)ncn2)c1 (centres unmarked) [Example 73],100 to 500,500 to 1000,≤ 100,≤ 100

Compound,IC50 (H2405 cells) [nM],IC50 (A-Raf kinase) [nM],IC50 (C-Raf kinase) [nM],IC50 (B-Raf (V600E) kinase) [nM]
Cc1ncc(NC(=O)NCCC(C)(C)F)cc1-c1ccnc(-c2ccnc(NC(=O)C3CC3)c2)c1 [Example 75],1000 to 10000,> 1000,≤ 100,≤ 100
COC(=O)Nc1cc(-c2cncc(-c3cc(NC(=O)N4CCCC4)ccc3C)c2)ccn1 [Example 213],1000 to 10000,> 1000,500 to 1000,500 to 1000
COC(C)(C)CCNC(=O)Nc1ccc(C)c(-c2cc(-c3cnn(C)c3)nc(N3CCOCC3)c2)c1 [Example 38],–,> 1000,≤ 100,≤ 100
Cc1ccc(NC(=O)N2CC[C@H](C(C)C)C2)cc1-c1cncc(-c2cc(NC(=O)C3CC3)ncn2)c1 [Example 221],≤ 100,100 to 500,≤ 100,≤ 100
CC(=O)Nc1cc(-c2cc(-c3cc(NC(=O)Nc4ccc(C(F)(F)F)cc4)cnc3C)ccn2)ccn1 [Example 48],–,> 1000,≤ 100,≤ 100
Cc1ccc(NC(=O)Nc2ccnc(C(C)(C)C#N)c2)cc1-c1ccnc(-c2ccnc(C(=O)NC3CC3)c2)c1 [Example 68],–,> 1000,≤ 100,≤ 100
Cc1ccc(NC(=O)N2CCC(CC(F)(F)F)C2)cc1-c1cncc(-c2cc(N)ncn2)c1 (centres unmarked) [Example 207],–,> 1000,≤ 100,500 to 1000
CC(=O)Nc1cc(-c2cc(-c3cc(NC(=O)NCCC4(C(F)(F)F)CC4)c(F)cc3C)cc(C3CC3)n2)ccn1 [Example 54],–,> 1000,≤ 100,≤ 100
Cc1cc(F)c(NC(=O)NCCC2(C)CC2)cc1-c1cccc(-c2ccnc(NC(=O)C3CC3)c2)c1 [Example 64],–,> 1000,≤ 100,≤ 100
Cc1cc(F)c(NC(=O)NCCC2(C)CC2)cc1-c1cccc(-c2cc(NC(=O)C3CC3)ncn2)c1 [Example 65],–,> 1000,≤ 100,≤ 100
CC(=O)Nc1cc(-c2cc(-c3cc(NC(=O)NC4CC(C)(C)C4)c(F)cc3C)cc(OCCO)n2)ccn1 [Example 47],–,100 to 500,≤ 100,≤ 100
Cc1ccc(NC(=O)N[C@H]2C[C@](C)(F)C2)cc1-c1cc(-c2ccnc(NC(=O)C3CC3)c2)nc(C2CC2)c1 [Example 61],–,> 1000,≤ 100,≤ 100
Cc1ccc(NC(=O)NCCC(C)(C)C)cc1-c1ccnc(N2CCOCC2)c1 [Example 18],–,> 1000,≤ 100,≤ 100
COC(=O)Nc1cc(-c2cnnc(-c3cc(NC(=O)N4CCC(C(C)(C)O)C4)ccc3C)c2)ccn1 (centres unmarked) [Example 206],–,> 1000,100 to 500,> 1000
CC(=O)Nc1cc(-c2cc(-c3cc(NC(=O)NC4CCCCC4)c(F)cc3C)cc(OCCO)n2)ccn1 [Example 53],–,100 to 500,≤ 100,≤ 100
Cc1ccc(NC(=O)N[C@H]2C[C@](C)(F)C2)cc1-c1cc(OCCO)nc(-c2ccnc(NC(=O)CN(C)C)c2)c1 [Example 50],–,> 1000,≤ 100,≤ 100
COC(C)(C)CCNC(=O)Nc1cc(-c2cccc(-c3ccnc(NC(C)=O)c3)c2)c(C)cc1F [Example 71],–,100 to 500,≤ 100,≤ 100
CC(=O)Nc1cc(-c2cc(-c3cc(NC(=O)NCCC4(C)CC4)ccc3C)cc(N3CCOCC3)n2)ccn1 [Example 57],–,500 to 1000,≤ 100,≤ 100
CNC(=O)c1cc(-c2cccc(-c3cc(NC(=O)NCCC(C)(C)OC)c(F)cc3C)c2)ccn1 [Example 72],–,> 1000,≤ 100,≤ 100
CC(=O)Nc1cc(-c2cc(-c3cc(NC(=O)NCC45CC(F)(C4)C5)c(F)cc3C)cc(OCCO)n2)ccn1 [Example 52],–,> 1000,≤ 100,≤ 100
CC(=O)Nc1cc(-c2cc(-c3cc(NC(=O)NCCC4(C)CC4)c(F)cc3C)cc(C)n2)ccn1 [Example 55],–,100 to 500,≤ 100,≤ 100
